Assay results published in US20240238299A1, “USE OF PYRROLOPYRIMIDINE COMPOUND” (GUANGZHOU JOYO PHARMATECH CO., LTD, priority 2021, published 2024).

Legend:
[1] = tested on: mouse CCL5 secretion by BV-2 cell line; assay: CCL5 secretion by LPS/IFN-γ-activated BV-2 cells (ELISA); format: cell-based
Protocol: Step 1: BV-2 cells in the exponential growth phase were collected, and viable cells were counted using a Vi-Cell XR cell counter. The cell suspension was adjusted to an appropriate concentration with the culture medium. 160 μL of cell suspension was added to each well of a 96-well cell culture plate, resulting in a final cell concentration of 12,000 cells per well. The culture plate was incubated for 24 hours in a 37° C., 5% CO2 incubator.
Step 2: A 10 mM DMSO compound stock solution was diluted at a ratio of 1:4 using DMSO to prepare a series of 1000× test compound solutions. These 1000× test compound solutions were further diluted at a ratio of 1:100 using cell culture medium to prepare a series of 10× test compound solutions. Finally, the 96-well plate that had been plated with cells the day before was taken out. According to the experimental well plate loading design, 20 μL of the corresponding 10× solution was added to each well, with three duplicate wells for each drug concentration. The final concentrations of the test compounds used in the experiment (i.e., 1× solutions) have a range of 10, 2.5, 0.625, 0.156, 0.0391, 0.0098, and 0.0024 μM. The final DMSO concentration in each well was 0.1%.
After the compound was added, the 96-well plate was incubated for half an hour in the 37° C., 5% CO2 incubator.
After the pre-incubation was completed, 20 μL of culture medium containing 100 ng/mL LPS and 100 ng/mL IFN-γ (final concentrations of 10 ng/mL LPS and 10 ng/mL IFN-7) was added to each well to induce the activation of BV-2 cells. The culture plate was then incubated for 24 hours in the 37° C., 5% CO2 incubator. […]
Step 5 (NO and CCL5 detection): The CCL5 levels in the supernatant were detected using an ELISA kit (Mouse CCL5/RANTES DuoSet ELISA; R&D; DY478-05), following the instructions provided with the kit. The nitric oxide (NO) levels in the supernatant were detected using the Griess Reagent System (Promega; G2930), following the instructions provided with the kit.
Step 1: Firstly, the optical density values obtained from ELISA and Griess tests were used to plot a standard curve and calculate the absolute concentrations of each sample. The absolute concentration was then calibrated using the CTG fluorescence value corresponding to each sample to obtain the calibrated concentration. The formula for calculating the calibrated concentration was: calibrated concentration=absolute concentration/CTG fluorescence value of the same sample.
Step 2: Based on the calibrated concentration of each sample, the relative percentage of CCL5 or NO secretion (i.e., CCL5 production (%) or NO production (%)) at each test concentration relative to the blank (DMSO) group was calculated. […]

[2] = tested on: MOG35-55-induced EAE mouse spinal cord; assay: EAE mouse model, spinal cord H&E and LFB pathological scoring; format: in vivo, C57BL/6 mice; conditions: day 28
Protocol: For each group consisting of 5 mice, euthanasia was performed followed by cardiac perfusion with saline. Subsequently, an equal volume of 10% formalin was perfused. Spinal cord tissues from the mice were collected, soaked in […], and then sectioned. Hematoxylin & Eosin (H&E) staining and Luxol Fast Blue (LFB) staining were performed, along with pathological scoring.
At the end of the experiment, the spinal cords of mice were collected, with 2 in the normal control group and 5 in each of the remaining groups. The spinal cords were fixed in formalin, followed by paraffin embedding and sectioning. Two sections were taken from each mouse and subjected to H&E and FLB staining for pathological observation. Scoring was done for cell infiltration, lesion areas, and demyelination. […] Specifically, after H&E staining of the mouse spinal cord, cell infiltration (A) and lesion area (B) in the spinal cord sections were counted. After LFB staining, the degree of demyelination (C) in the spinal cord sections was scored. Data were presented as mean±standard error of the mean (mean±SEM). *p<0.05, **p<0.01, ***p<0.001, ****p<0.0001, vs. vehicle control group (Vehicle), one-way ANOVA.

[3] = tested on: STAT3 phosphorylation (p-STAT3/STAT3) in spinal cord; assay: EAE mouse model, STAT3 phosphorylation in spinal cord (Western blot); format: in vivo, C57BL/6 mice; conditions: for inhibition rate of STAT3 phosphorylation in spinal cord: day 28

Which “Maximum inhibition rate on CCL5 secretion by BV-2” value ([1]; 24 h co-incubation, up to 10 μM) does the source give for `CN(c1ncnc2[nH]ccc12)[C@@H]1CCc2cc(C#N)nn2C1` [Compound I] here?
The value was 80.29%.

And the IC50 ([1]; Mus musculus, BV-2, 24 h co-incubation)?
The IC50 was 863 nM.

What about the “cell infiltration, lesion area and demyelination compared with Fingolimod” value ([2]; 10 mg/kg BID) of the same compound?
The value was “significantly better therapeutic effect than the positive drug Fingolimod group”.

And the “damage to the spinal cord caused by EAE modeling” value ([2]; all doses (3, 10, 20 mg/kg BID, 20 mg/kg QD))?
The value was “significantly inhibited the damage to the spinal cord”.

What about the “inhibition rate of STAT3 phosphorylation in spinal cord” value ([3]; 10 mg/kg BID) of the same compound?
The value was 86%.

And the “inhibition rate of STAT3 phosphorylation in spinal cord” value ([3]; 20 mg/kg BID)?
The value was 86%.

And the “STAT3 phosphorylation in spinal cord” value ([3]; all dose groups, day 28, 0.25 h after administration)?
Its value is “significantly inhibited the level of STAT3 phosphorylation in spinal cord”.
